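Growth conditions: 96-well plates. Treatment: test compound, 48 hours, 5 concentrations. Analysis: linear interpolation between bracketing concentrations; unreached endpoints set to highest concentration. GI50 is the concentration that inhibits growth by half.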 Calls of active or inactive are those of the source. Rule as the data show it: active = GI50 up to about 1.1 µM and inactive = higher.
Assays:
Experiment in all cases: inhibition of tumour cell growth, NCI panel, 48 h
CAKI-1 = test system: CAKI-1
SNB-78 = test system: SNB-78
SK-MEL-2 = test system: SK-MEL-2
KM12 = test system: KM12
OVCAR-4 = test system: OVCAR-4
KM-20L2 = test system: KM-20L2
DLD-1 = test system: DLD-1
UACC-257 = test system: UACC-257
HCT-15 = test system: HCT-15
SK-MEL-5 = test system: SK-MEL-5
HCC 2998 = test system: HCC 2998
HOP-92 = test system: HOP-92
UACC-62 = test system: UACC-62
SK-OV-3 = test system: SK-OV-3
SF-539 = test system: SF-539
SNB-19 = test system: SNB-19
MOLT-4 = test system: MOLT-4
UO-31 = test system: UO-31
NCI-H460 = test system: NCI-H460
HCT-116 = test system: HCT-116
A549 = test system: A549
NCI-H522 = test system: NCI-H522
SN12C = test system: SN12C
HOP-62 = test system: HOP-62
OVCAR-3 = test system: OVCAR-3
TK-10 = test system: TK-10
M14 = test system: M14
OVCAR-8 = test system: OVCAR-8
LXFL 529 = test system: LXFL 529
Malme-3M = test system: Malme-3M
SF-295 = test system: SF-295
786-0 = test system: 786-0
NCI-H226 = test system: NCI-H226
A498 = test system: A498
K562 = test system: K562
EKVX = test system: EKVX
DMS-114 = test system: DMS-114
LOX IMVI = test system: LOX IMVI
RPMI-8226 = test system: RPMI-8226
ACHN = test system: ACHN
SK-MEL-28 = test system: SK-MEL-28
OVCAR-5 = test system: OVCAR-5
M19-MEL = test system: M19-MEL
CCRF-CEM = test system: CCRF-CEM
HL-60 = test system: HL-60
IGROV-1 = test system: IGROV-1
HOP-18 = test system: HOP-18
U-251 = test system: U-251
SF-268 = test system: SF-268
SNB-75 = test system: SNB-75
RXF 393 = test system: RXF 393
NCI-H23 = test system: NCI-H23
XF498 = test system: XF498
SW-620 = test system: SW-620
COLO 205 = test system: COLO 205
DMS-273 = test system: DMS-273
HT-29 = test system: HT-29
RXF 631 = test system: RXF 631
SR = test system: SR

For `CCN(CC)CC(=N)N(CC)c1ccccc1`, the GI50 (CAKI-1) was > 100 µM (inactive), the GI50 (SNB-78) was > 100 µM (inactive) and the GI50 (SK-MEL-2) was > 100 µM (inactive). The GI50 (KM12) was > 100 µM (inactive), the GI50 (OVCAR-4) was > 100 µM (inactive) and the GI50 (KM-20L2) was > 100 µM (inactive). The GI50 (DLD-1) was > 100 µM (inactive), the GI50 (UACC-257) was 43.6 µM (inactive) and the GI50 (HCT-15) was over 100 µM. For the same compound, the GI50 (SK-MEL-5) was > 100 µM (inactive), the GI50 (HCC 2998) was 93.3 µM (inactive) and the GI50 (HOP-92) was > 100 µM (inactive). The GI50 (UACC-62) was > 100 µM (inactive), the GI50 (SK-OV-3) was > 100 µM (inactive) and the GI50 (SF-539) was > 100 µM (inactive). The GI50 (SNB-19) was > 100 µM (inactive), the GI50 (MOLT-4) was > 100 µM (inactive) and the GI50 (UO-31) was > 100 µM (inactive). For the same compound, the GI50 (NCI-H460) was > 100 µM (inactive), the GI50 (HCT-116) was > 100 µM (inactive) and the GI50 (A549) was > 100 µM (inactive). The GI50 (NCI-H522) was > 100 µM (inactive), the GI50 (SN12C) was > 100 µM (inactive) and the GI50 (HOP-62) was > 100 µM (inactive). For the same compound, the GI50 (OVCAR-3) was > 100 µM (inactive), the GI50 (TK-10) was > 100 µM (inactive) and the GI50 (M14) was > 100 µM (inactive). The GI50 (OVCAR-8) was > 100 µM (inactive), the GI50 (LXFL 529) was > 100 µM (inactive) and the GI50 (Malme-3M) was > 100 µM (inactive). For the same compound, the GI50 (SF-295) was > 100 µM (inactive), the GI50 (786-0) was > 100 µM (inactive) and the GI50 (NCI-H226) was > 100 µM (inactive). The GI50 (A498) was > 100 µM (inactive), the GI50 (K562) was > 100 µM (inactive) and the GI50 (EKVX) was > 100 µM (inactive). For the same compound, the GI50 (DMS-114) was > 100 µM (inactive), the GI50 (LOX IMVI) was > 100 µM (inactive) and the GI50 (RPMI-8226) was > 100 µM (inactive). For the same compound, the GI50 (ACHN) was > 100 µM (inactive), the GI50 (SK-MEL-28) was > 100 µM (inactive) and the GI50 (OVCAR-5) was > 100 µM (inactive). For the same compound, the GI50 (M19-MEL) was > 100 µM (inactive), the GI50 (CCRF-CEM) was > 100 µM (inactive) and the GI50 (HL-60) was > 100 µM (inactive). The GI50 (IGROV-1) was > 100 µM (inactive), the GI50 (HOP-18) was > 100 µM (inactive) and the GI50 (U-251) was > 100 µM (inactive). For the same compound, the GI50 (SF-268) was > 100 µM (inactive), the GI50 (SNB-75) was 33.7 µM (inactive) and the GI50 (RXF 393) was > 100 µM (inactive). For the same compound, the GI50 (NCI-H23) was > 100 µM (inactive), the GI50 (XF498) was > 100 µM (inactive) and the GI50 (SW-620) was > 100 µM (inactive). For the same compound, the GI50 (COLO 205) was > 100 µM (inactive).
For `NC(=S)N/C=C1\C(=O)Oc2ccccc2C1=O`, the GI50 (CAKI-1) was 20.7 µM (inactive), the GI50 (SNB-78) was 94.2 µM (inactive) and the GI50 (SK-MEL-2) was 22.6 µM (inactive). For the same compound, the GI50 (KM12) was > 100 µM (inactive), the GI50 (OVCAR-4) was > 100 µM (inactive) and the GI50 (KM-20L2) was > 100 µM (inactive). The GI50 (DLD-1) was 31.2 µM (inactive), the GI50 (UACC-257) was > 100 µM (inactive) and the GI50 (HCT-15) was 48 µM. For the same compound, the GI50 (SK-MEL-5) was 42.3 µM (inactive), the GI50 (DMS-273) was > 100 µM (inactive) and the GI50 (HCC 2998) was 66.8 µM (inactive). For the same compound, the GI50 (HOP-92) was 35.5 µM (inactive), the GI50 (UACC-62) was 47.2 µM (inactive) and the GI50 (SK-OV-3) was 51.2 µM (inactive). The GI50 (SF-539) was 34 µM (inactive), the GI50 (SNB-19) was 68.5 µM (inactive) and the GI50 (MOLT-4) was > 100 µM (inactive). The GI50 (UO-31) was 27.5 µM (inactive), the GI50 (NCI-H460) was > 100 µM (inactive) and the GI50 (HCT-116) was 53.5 µM (inactive). The GI50 (A549) was 97.1 µM (inactive), the GI50 (HT-29) was > 100 µM (inactive) and the GI50 (NCI-H522) was 69.2 µM (inactive). The GI50 (SN12C) was 37.2 µM (inactive), the GI50 (OVCAR-3) was 37.3 µM (inactive) and the GI50 (TK-10) was 90.4 µM (inactive). The GI50 (M14) was 48.5 µM (inactive), the GI50 (OVCAR-8) was 56.5 µM (inactive) and the GI50 (LXFL 529) was 85.7 µM (inactive). The GI50 (Malme-3M) was 32.7 µM (inactive), the GI50 (SF-295) was > 100 µM (inactive) and the GI50 (786-0) was 53.5 µM (inactive). The GI50 (NCI-H226) was 21.9 µM (inactive), the GI50 (A498) was 51.4 µM (inactive) and the GI50 (K562) was > 100 µM (inactive). For the same compound, the GI50 (EKVX) was > 100 µM (inactive), the GI50 (DMS-114) was 48.4 µM (inactive) and the GI50 (LOX IMVI) was > 100 µM (inactive). The GI50 (RPMI-8226) was > 100 µM (inactive), the GI50 (ACHN) was 28.9 µM (inactive) and the GI50 (SK-MEL-28) was > 100 µM (inactive). The GI50 (OVCAR-5) was > 100 µM (inactive), the GI50 (M19-MEL) was > 100 µM (inactive) and the GI50 (CCRF-CEM) was > 100 µM (inactive). The GI50 (HL-60) was > 100 µM (inactive), the GI50 (IGROV-1) was 63.4 µM (inactive) and the GI50 (HOP-18) was 39.2 µM (inactive). The GI50 (U-251) was 43.8 µM (inactive), the GI50 (SF-268) was 24.7 µM (inactive) and the GI50 (SNB-75) was 14.1 µM (inactive). The GI50 (RXF 393) was 18.4 µM (inactive), the GI50 (NCI-H23) was > 100 µM (inactive) and the GI50 (XF498) was 32.3 µM (inactive). The GI50 (SW-620) was 75.5 µM (inactive) and the GI50 (COLO 205) was > 100 µM (inactive).
In the case of `Cc1ccc(NC(=S)SCCC(=O)O)cc1`, the GI50 (CAKI-1) is reported as 81.8 µM (inactive), the GI50 (SNB-78) is reported as > 100 µM (inactive) and the GI50 (SK-MEL-2) is reported as > 100 µM (inactive). For the same compound, the GI50 (KM12) was > 100 µM (inactive), the GI50 (OVCAR-4) was > 100 µM (inactive) and the GI50 (KM-20L2) was > 100 µM (inactive). For the same compound, the GI50 (UACC-257) was > 100 µM (inactive), the GI50 (HCT-15) was over 100 µM and the GI50 (DMS-273) was > 100 µM (inactive). The GI50 (HCC 2998) was > 100 µM (inactive), the GI50 (RXF 631) was > 100 µM (inactive) and the GI50 (SF-539) was > 100 µM (inactive). The GI50 (SNB-19) was > 100 µM (inactive), the GI50 (MOLT-4) was > 100 µM (inactive) and the GI50 (UO-31) was > 100 µM (inactive). The GI50 (NCI-H460) was > 100 µM (inactive), the GI50 (HCT-116) was > 100 µM (inactive) and the GI50 (A549) was > 100 µM (inactive). For the same compound, the GI50 (HT-29) was > 100 µM (inactive), the GI50 (NCI-H522) was > 100 µM (inactive) and the GI50 (SN12C) was > 100 µM (inactive). The GI50 (HOP-62) was > 100 µM (inactive), the GI50 (OVCAR-3) was > 100 µM (inactive) and the GI50 (TK-10) was > 100 µM (inactive). For the same compound, the GI50 (M14) was > 100 µM (inactive), the GI50 (OVCAR-8) was > 100 µM (inactive) and the GI50 (LXFL 529) was > 100 µM (inactive). For the same compound, the GI50 (SF-295) was > 100 µM (inactive), the GI50 (786-0) was > 100 µM (inactive) and the GI50 (NCI-H226) was > 100 µM (inactive). For the same compound, the GI50 (A498) was > 100 µM (inactive), the GI50 (K562) was > 100 µM (inactive) and the GI50 (EKVX) was > 100 µM (inactive). For the same compound, the GI50 (DMS-114) was > 100 µM (inactive), the GI50 (LOX IMVI) was > 100 µM (inactive) and the GI50 (RPMI-8226) was > 100 µM (inactive). The GI50 (ACHN) was > 100 µM (inactive), the GI50 (SK-MEL-28) was > 100 µM (inactive) and the GI50 (OVCAR-5) was > 100 µM (inactive). For the same compound, the GI50 (SR) was > 100 µM (inactive), the GI50 (CCRF-CEM) was > 100 µM (inactive) and the GI50 (HL-60) was > 100 µM (inactive). For the same compound, the GI50 (U-251) was > 100 µM (inactive), the GI50 (SF-268) was 71.6 µM (inactive) and the GI50 (RXF 393) was > 100 µM (inactive). For the same compound, the GI50 (NCI-H23) was > 100 µM (inactive), the GI50 (SW-620) was > 100 µM (inactive) and the GI50 (COLO 205) was > 100 µM (inactive).

— ChEMBL document CHEMBL1201862, “PubChem BioAssay data set” (2004)
